From US9505781B2, “Compositions comprising thienopyrimidine and thienopyridine compounds and methods of use thereof” (The Regents of the University of Michigan, priority 2013, dated 2016)

What follows are molecules tested against T1, menin-MLL interaction (Homo sapiens, UniProt O00255) (assay: biochemical).
T1 sequence (O00255 1-610): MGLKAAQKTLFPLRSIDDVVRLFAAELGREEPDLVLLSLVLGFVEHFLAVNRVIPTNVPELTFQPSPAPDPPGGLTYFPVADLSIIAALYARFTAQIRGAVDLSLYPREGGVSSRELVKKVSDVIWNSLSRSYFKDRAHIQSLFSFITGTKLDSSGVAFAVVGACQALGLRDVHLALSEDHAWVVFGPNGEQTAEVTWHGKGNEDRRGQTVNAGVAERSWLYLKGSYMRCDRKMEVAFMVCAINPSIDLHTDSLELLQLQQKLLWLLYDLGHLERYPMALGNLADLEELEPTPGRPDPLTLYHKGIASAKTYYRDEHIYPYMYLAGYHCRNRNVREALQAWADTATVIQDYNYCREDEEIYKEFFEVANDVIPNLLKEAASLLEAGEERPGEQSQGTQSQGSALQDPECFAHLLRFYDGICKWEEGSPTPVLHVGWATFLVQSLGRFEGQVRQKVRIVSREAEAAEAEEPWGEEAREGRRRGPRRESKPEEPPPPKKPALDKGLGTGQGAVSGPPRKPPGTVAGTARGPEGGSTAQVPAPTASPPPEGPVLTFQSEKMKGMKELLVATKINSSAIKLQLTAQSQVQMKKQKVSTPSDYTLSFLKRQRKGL
Excerpt: Compounds that inhibit the interaction decrease the fluorescence anisotropy which is being used as a read-out for compound screening and for IC50 determination.

IC50 | SMILES
< 100 nM | COCCOCCn1cc(Cn2c(C#N)cc3c(C)c(CN4CCC(Nc5ncnc6sc(CC(F)(F)F)cc56)CC4)ccc32)cn1 [Compound 313]
< 100 nM | Cc1c(CN2CCC(Nc3ncnc4sc(CC(F)(F)F)cc34)CC2)ccc2c1cc(C#N)n2CCc1cccnc1 [Compound 328]
< 100 nM | Cc1c[nH]c(CCC(O)(CO)Cn2c(C#N)cc3c(C)c(CN4CCC(Nc5ncnc6sc(CC(F)(F)F)cc56)CC4)ccc32)n1 (stereo not shown) [Compound 374]
500 to 2000 nM | N#Cc1cc2cc(CN3CCC(Nc4c(COCc5cc[nH]n5)cnc5sc(CC(F)(F)F)cc45)CC3)ccc2[nH]1 [Compound 420]
< 100 nM | N#Cc1cc2cc(CN3CCC(Nc4ncnc5sc(CC(F)(F)F)cc45)C(NC[C@H]4CCCN4C=O)C3)ccc2[nH]1 (stereo partly shown) [Compound 161]
< 100 nM | CN(c1ccc(CC(=O)N2CCN(C3=NC=NC4SC(CC(F)(F)F)=CC34)CC2)c(Cl)c1)S(C)(=O)=O (stereo not shown) [Compound 65]
100 to 500 nM | CNC(=O)CCn1c(C#N)cc2cc(CN3CCC(Nc4ncnc5sc(CC(F)(F)F)cc45)CC3)ccc21 [Compound 239]
500 to 2000 nM | CCCc1cc2c(NC3CCN(Cc4ccccc4C)CC3)ncnc2s1 [Compound 153]
500 to 2000 nM | CC1(C)CN=C(N2CCN(c3ncnc4sc(CCCC(F)(F)F)cc34)CC2)S1 [Compound 22]
100 to 500 nM | OCc1cc(O)ccc1CN1CCC(Nc2ncnc3sc(CC(F)(F)F)cc23)CC1 [Compound 107]
100 to 500 nM | NS(=O)(=O)c1ccc(CN2CCC(CNc3ncnc4sc(CC(F)(F)F)cc34)CC2)cc1 [Compound 262]
< 100 nM | N#Cc1cc2cc(CN3CCC(Nc4ncnc5sc(CC(F)(F)F)cc45)CC3)ccc2n1CCN1CCOCC1 [Compound 192]
< 100 nM | N#Cc1cc2cc(CN3CCC(Nc4ncnc5sc(CC(F)(F)F)cc45)CC3)ccc2n1C(F)C(N)=O (stereo not shown) [Compound 220]
500 to 2000 nM | FC(F)(F)Cc1cc2c(N3CCN(c4nnc(C(F)(F)F)o4)CC3)ncnc2s1 [Compound 20]
< 100 nM | N#Cc1cc2cc(CN3CCC(Nc4ncnc5sc(CC(F)(F)F)cc45)CC3)ccc2n1CCn1ccnn1 [Compound 207]
< 100 nM | N#Cc1cc2cc(CN3CCC(Nc4ncnc5sc(CC(F)(F)F)cc45)CC3)ccc2n1CC(N)=O [Compound 189]
500 to 2000 nM | CCCCc1cc2c(N3CCN(c4nnc(C(F)(F)F)s4)CC3)ncnc2s1 [Compound 34]
< 100 nM | CC(C)S(=O)(=O)Nc1ccc(CC(=O)N2CCN(c3ncnc4sc(CC(F)(F)F)cc34)CC2)cc1 [Compound 56]
< 100 nM | N#Cc1cc2c(F)c(CN3CCC(Nc4ncnc5sc(CC(F)(F)F)cc45)CC3)ccc2[nH]1 [Compound 184]
100 to 500 nM | O=C(Cc1ccccc1F)N1CCN(c2ncnc3sc(CC(F)(F)F)cc23)CC1 [Compound 72]
< 100 nM | Cc1c(CN2CCC(Nc3ncnc4sc(CC(F)(F)F)cc34)CC2)ccc2c1cc(C#N)n2CCN1CCN(C(C)C)CC1 [Compound 357]

IC50 | SMILES
100 to 500 nM | N#Cc1cc2cc(CN3CCC(Nc4ncnc5sc(CC(F)(F)F)cc45)CC3)c(F)cc2[nH]1 [Compound 234]
500 to 2000 nM | Nc1cccc(CN2CCC(Nc3ncnc4sc(CC(F)(F)F)cc34)CC2)c1 [Compound 157]
< 100 nM | N#Cc1cc2c(Cl)c(CN3CCC(Nc4ncnc5sc(CC(F)(F)F)cc45)CC3)ccc2n1CC(N)=O [Compound 225]
< 100 nM | N#Cc1cc2cc(CN3CCC(Nc4ncnc5sc(CC(F)(F)F)cc45)CC3)ccc2n1Cc1cc(OCC2CC2)n[nH]1 [Compound 312]
100 to 500 nM | CC(C(N)=O)n1c(C#N)cc2cc(CN3CCC(Nc4ncnc5sc(CC(F)(F)F)cc45)CC3)ccc21 (stereo not shown) [Compound 247]
< 100 nM | Cc1nc[nH]c1Cn1c(C#N)cc2c(C)c(CN3CCC(Nc4ncnc5sc(CC(F)(F)F)cc45)CC3)ccc21 [Compound 350]
< 100 nM | O=C(Cc1ccc(NS(=O)(=O)CNCC(F)(F)F)cc1)N1CCN(c2ncnc3sc(CC(F)(F)F)cc23)CC1 [Compound 62]
< 100 nM | Cc1c(CN2CCC(Nc3ncnc4sc(CC(F)(F)F)cc34)CC2)ccc2c1cc(C#N)n2CC(O)CO (stereo not shown) [Compound 300]
< 100 nM | COc1cc2c(cc(C#N)n2CC(N)=O)c(C)c1CN1CCC(Nc2ncnc3sc(CC(F)(F)F)cc23)CC1 [Compound 385]
100 to 500 nM | FC(F)(F)Cc1cc2c(NC3CCN(Cc4ccsc4)CC3)ncnc2s1 [Compound 133]
< 100 nM | N#Cc1c(F)c2cc(CN3CCC(Nc4ncnc5sc(CC(F)(F)F)cc45)CC3)ccc2n1CC(N)=O [Compound 213]
< 100 nM | CS(=O)(=O)Cc1ccc(CC(=O)N2CCN(c3ncnc4sc(CC(F)(F)F)cc34)CC2)cc1 [Compound 43]
< 100 nM | CC(O)(CO)Cn1c(C#N)cc2cc(CN3CCC(Nc4ncnc5sc(CC(F)(F)F)cc45)CC3)ccc21 (stereo not shown) [Compound 221]
< 100 nM | COc1c(CN2CCC(Nc3ncnc4sc(CC(F)(F)F)cc34)CC2)ccc2[nH]c(C#N)cc12 [Compound 180, 4-methoxy-5-((4-((6-(2,2,2-trifluoroethyl)thieno[2,3-d]pyrimidin-4-yl)amino)piperidin-1-yl)methyl)-1H-indole-2-carbonitrile]
500 to 2000 nM | FC(F)(F)Cc1cc2c(NC3CCN(Cc4ccccc4C(F)(F)F)CC3)ncnc2s1 [Compound 148]
500 to 2000 nM | CS(=O)(=O)N(CC1CCCC1)c1ccc(CC(=O)N2CCN(c3ncnc4sc(CC(F)(F)F)cc34)CC2)cc1 [Compound 100]
500 to 2000 nM | CCCC(c1ccc(CC(=O)N2CCN(c3ncnc4sc(CC(F)(F)F)cc34)CC2)cc1)S(C)(=O)=O (stereo not shown) [Compound 98]
500 to 2000 nM | CCCCN(CC1CCN(Cc2ccc(C#N)cc2)CC1)c1ncnc2sc(CC(F)(F)F)cc12 [Compound 264]
< 100 nM | Cc1c(CN2CCC(Nc3ncnc4sc(CC(F)(F)F)cc34)CC2)ccc2c1cc(C#N)n2CCN1CCN(C)C(=O)C1 [Compound 356]
100 to 500 nM | FC(F)(F)Cc1cc2c(NCC3CCN(Cc4ccc(Cl)cc4Cl)CC3)ncnc2s1 [Compound 254]
100 to 500 nM | CS(=O)(=O)N1CCC[C@H]1CN[C@@H]1CN(Cc2ccccc2)CC[C@H]1Nc1ncnc2sc(CC(F)(F)F)cc12 [Compound 173]

IC50 | SMILES
100 to 500 nM | FC(F)(F)Cc1cc2c(NCC3CCN(Cc4ccc(Cl)cc4)CC3)ncnc2s1 [Compound 261]
< 100 nM | CCOc1cc2c(cc1CN1CCC(Nc3ncnc4sc(CC(F)(F)F)cc34)CC1)cc(C#N)n2C[C@H](O)CO [Compound 217]
< 100 nM | N#Cc1cc2c(F)c(CN3CCC(Nc4ncnc5sc(CC(F)(F)F)cc45)CC3)ccc2n1CC(N)=O [Compound 205]
100 to 500 nM | Oc1cccc(O)c1CN1CCC(Nc2ncnc3sc(CC(F)(F)F)cc23)CC1 [Compound 111]
< 100 nM | NS(=O)(=O)Cc1ccc(CC(=O)N2CCN(c3ncnc4sc(CC(F)(F)F)cc34)CC2)cc1 [Compound 44, (4-(2-oxo-2-(4-(6-(2,2,2-trifluoroethyl)thieno[2,3-d]pyrimidin-4-yl)piperazin-1-yl)ethyl)phenyl)methanesulfonamide]
100 to 500 nM | N#Cc1[nH]c2ccc(CN3CCC(Nc4ncnc5sc(CC(F)(F)F)cc45)CC3)cc2c1N [Compound 233]
100 to 500 nM | N#Cc1cc2cc(CN3CCC(Nc4ncnc5sc(CC(F)(F)F)cc45)CC3)ccc2n1Cc1cc(OCCC2CC2)n[nH]1 [Compound 412]
< 100 nM | N#Cc1cc2c(CO)c(CN3CCC(Nc4ncnc5sc(CC(F)(F)F)cc45)CC3)ccc2[nH]1 [Compound 290]
500 to 2000 nM | FC(F)(F)Cc1cc2c(NCC3CCN(Cc4ccc(C(F)(F)F)cc4)CC3)ncnc2s1 [Compound 276]
500 to 2000 nM | OCCC(F)(F)Cc1cc2c(NC3CCN(Cc4ccccc4)CC3)ncnc2s1 [Compound 138]
100 to 500 nM | N#Cc1ccc(N2CCC(N3CCN(c4ncnc5sc(CC(F)(F)F)cc45)CC3)CC2)cc1 [Compound 13]
< 100 nM | Cc1c(CN2CCC(Nc3ncnc4sc(CC(F)(F)F)cc34)CC2)ccc2c1cc(C#N)n2CCN1CCS(=O)(=O)CC1 [Compound 368]
100 to 500 nM | Cc1ccccc1CN1CCC(CNc2ncnc3sc(CC(F)(F)F)cc23)CC1 [Compound 258]
100 to 500 nM | Cc1noc(C)c1Cn1c(C#N)cc2cc(CN3CCC(Nc4ncnc5sc(CC(F)(F)F)cc45)CC3)ccc21 [Compound 241]
< 100 nM | Cc1c(CN2CCC(Nc3ncnc4sc(CC(F)(F)F)cc34)CC2)ccc2c1cc(C#N)n2CCN1CCN(CC(N)=O)CC1 [Compound 364]
100 to 500 nM | O=C(Cc1ccc(CS(=O)(=O)C(F)(F)F)cc1)N1CCN(c2ncnc3sc(CC(F)(F)F)cc23)CC1 [Compound 79]
100 to 500 nM | Cc1c(C#N)[nH]c2ccc(CN3CCC(Nc4ncnc5sc(CC(F)(F)F)cc45)CC3)cc12 [Compound 417]
< 100 nM | Cc1c(CN2CCC(Nc3ncnc4sc(CC(F)(F)F)cc34)CC2)ccc2c1cc(C#N)n2CC(O)(CO)CCCC1CC1 (stereo not shown) [Compound 425]
500 to 2000 nM | O=C(C1CCCCC1)N1CCN(c2ncnc3sc(CC(F)(F)F)cc23)CC1 [Compound 87]
< 100 nM | CCS(=O)(=O)Nc1ccc(CC(=O)N2CCN(c3ncnc4sc(CC(F)(F)F)cc34)CC2)cc1 [Compound 49]

SMILES | IC50
OCC(O)CN(c1ncnc2sc(CC(F)(F)F)cc12)C1CCN(Cc2ccccc2)CC1 (stereo not shown) [Compound 128] | 100 to 500 nM
OCCN(c1ncnc2sc(CC(F)(F)F)cc12)C1CCN(Cc2ccccc2)CC1 [Compound 129] | 100 to 500 nM
